The text below walks through data of article PMC13058460, “PET-MRI biomarkers reveal efficacy of a novel NLRP3 inhibitor in Parkinson’s disease models” (Brain, 2025).

Usually half-life stands for the time needed for the level to fall by half in the phase considered. A high value points to slow decline. By inhibition is commonly meant the change of the read-out against control, counted positive when it falls. Read a low inhibition as a response near the control. In general, ED50 refers to the dose at which the effect has come halfway, by size or by number of responders. Broadly, the IC50 is the concentration that inhibits the measured activity by half. A higher IC50 goes with a need for much substance. For orientation: bioavailability means dose-corrected exposure relative to a reference, in per cent. Read a high bioavailability as good availability. A word on the fraction unbound: it is the share of the substance not bound to proteins or other matrix. Higher therefore signals much free substance.

Molecules are shown by their SMILES. Like-named read-outs stand apart in the source and are kept apart here.

Series [1] relates to 95 targets (Eurofins Cerep panel). Nature of the series: Off-target screen, Eurofins Cerep panel (binding, enzyme and uptake assays). The conditions noted are these: 10uM. On the procedure:
(10uM) was screened for inhibition or activation activities at 95 targets (Eurofins Cerep panel) in
binding and enzyme and uptake assays. […]

Series [2] is described as follows: Human liver microsome stability. Particulars: liver microsomes. Background: Liver microsomes are vesicles of endoplasmic reticulum, rich in cytochrome P450 enzymes.
Description: (§3) LM – Liver microsome (half-life in minutes)
PPB – Plasma Protein Binding
(§4) PS – Plasma Stability (% remaining at 2 hours)
Series [3] has as its target hERG (human ether-a-go-go K+ ion channel) (Homo sapiens, UniProt Q12809). Nature of the series: hERG QPatch assay.
Description: as §3
PPB – Plasma Protein Binding
as §4
The subject of series [4] is healthy subjects. Also on record: method as in NCT04015076. Particulars: randomized, double-blinded, placebo-controlled, single and multiple ascending dose, ref NCT04015076; cited from earlier work.
In series [5] the target is T1, NLRC4 inflammasome (Mus musculus, UniProt Q3UP24).
T1 construct: marrow cells were isolated from C57BL/6J mice and cultured macrophages stimulated with S; endogenous in cells; host or cells: bone-marrow-derived macrophages from C57BL/6J mice
T1 sequence (Q3UP24 whole entry): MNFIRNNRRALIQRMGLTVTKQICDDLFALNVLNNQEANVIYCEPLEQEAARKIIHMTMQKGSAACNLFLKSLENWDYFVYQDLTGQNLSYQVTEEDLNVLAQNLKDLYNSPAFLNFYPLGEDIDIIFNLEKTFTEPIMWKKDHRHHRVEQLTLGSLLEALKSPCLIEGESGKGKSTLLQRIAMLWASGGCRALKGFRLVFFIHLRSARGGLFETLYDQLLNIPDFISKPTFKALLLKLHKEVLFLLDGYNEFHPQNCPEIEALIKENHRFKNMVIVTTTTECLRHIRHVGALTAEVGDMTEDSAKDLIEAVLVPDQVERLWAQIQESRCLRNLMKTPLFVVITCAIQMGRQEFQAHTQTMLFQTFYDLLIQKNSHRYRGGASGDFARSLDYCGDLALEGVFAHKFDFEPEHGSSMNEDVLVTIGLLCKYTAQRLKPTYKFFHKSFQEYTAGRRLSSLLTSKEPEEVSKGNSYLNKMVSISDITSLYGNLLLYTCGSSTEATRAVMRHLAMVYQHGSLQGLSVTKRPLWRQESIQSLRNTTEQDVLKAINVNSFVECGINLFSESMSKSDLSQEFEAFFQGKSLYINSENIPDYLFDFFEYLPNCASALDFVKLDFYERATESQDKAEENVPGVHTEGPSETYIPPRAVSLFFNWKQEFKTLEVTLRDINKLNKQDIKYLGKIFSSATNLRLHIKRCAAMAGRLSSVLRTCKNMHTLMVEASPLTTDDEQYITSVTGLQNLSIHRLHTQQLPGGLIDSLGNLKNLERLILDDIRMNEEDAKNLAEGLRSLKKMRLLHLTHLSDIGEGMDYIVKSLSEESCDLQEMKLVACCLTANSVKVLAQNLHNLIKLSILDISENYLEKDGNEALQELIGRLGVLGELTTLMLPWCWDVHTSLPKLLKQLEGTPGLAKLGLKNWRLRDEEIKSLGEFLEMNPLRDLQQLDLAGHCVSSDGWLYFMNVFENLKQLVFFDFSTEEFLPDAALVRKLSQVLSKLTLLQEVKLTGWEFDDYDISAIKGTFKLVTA
Nature of the series: NLRC4 inflammasome activation by S. typhimurium in bone marrow macrophages. Format: cell-based. Particulars: C57BL/6J bone marrow macrophages stimulated with S. typhimurium; n=2. The text has this:
(§1) marrow cells were isolated from C57BL/6J mice and cultured macrophages stimulated with S.
(§2) typhimurium (S.typ) and poly(dA:dT) to activate [A] NLRC4 and [B] AIM2 inflammasomes. No […]

A short description of series [6]: Human plasma stability. Particulars: % remaining at 2 hours.
Description: as §3
PPB – Plasma Protein Binding
as §4
In series [7] the target is T2, AIM2 inflammasome (Mus musculus, UniProt Q91VJ1).
T2 construct: marrow cells were isolated from C57BL/6J mice and cultured macrophages stimulated with S; endogenous in cells; host or cells: bone-marrow-derived macrophages from C57BL/6J mice
T2 sequence (Q91VJ1 1-354): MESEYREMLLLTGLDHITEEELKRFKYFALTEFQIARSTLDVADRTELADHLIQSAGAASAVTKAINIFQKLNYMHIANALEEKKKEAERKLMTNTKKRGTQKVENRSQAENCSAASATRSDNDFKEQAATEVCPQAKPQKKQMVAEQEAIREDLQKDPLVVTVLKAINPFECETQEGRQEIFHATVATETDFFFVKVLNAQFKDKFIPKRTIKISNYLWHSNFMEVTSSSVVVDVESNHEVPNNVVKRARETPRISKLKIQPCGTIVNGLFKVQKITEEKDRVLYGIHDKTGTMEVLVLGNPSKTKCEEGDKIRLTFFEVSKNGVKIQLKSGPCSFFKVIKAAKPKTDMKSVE
Description: AIM2 inflammasome activation by poly(dA:dT) in bone marrow macrophages. Format: cell-based. The conditions noted are these: C57BL/6J bone marrow macrophages stimulated with poly(dA:dT); n=2.
Excerpt: as §1, §2

Series [8] has as its system 6-OHDA Parkinson's mouse model. Description: 6-OHDA Parkinson's mouse model, oral gavage dose response (rotations, striatal dopamine). Particulars: for ED50: Mus musculus.
Description: 6-hydroxydopamine (6-OHDA; Sigma) was dissolved in saline with 0.2% ascorbic acid to a final injected dose of 12 μg as previously described.[18]
Mice received analgesics and fluids and were placed on a heat pad until recovery.
D-amphetamine (2 mg/kg) was administered either 17 or 21 days post-6-OHDA; net ipsilateral turns over 10 min were recorded.
Striatal dopamine and metabolites were quantified by LC-MS/MS as previously described.[36]
(B) Amphetamine-induced ipsilateral rotations at Day 21, and (C–E) levels of striatal dopamine, 3,4-dihydroxyphenylacetic acid (DOPAC) and homovanillic acid (HVA) 28 days following saline or 6-OHDA injection. […] Data in B–E are presented as box-whisker plot with median (line), 25th to 75th percentiles (box) and full range (whiskers) shown. **P < 0.01, ***P < 0.001 by one-way ANOVA (two-tailed), and Dunnett’s post-test comparing to untreated 6-OHDA group.
administration to fasted 8–10-week-old C57BL/6J male mice was performed using an adapted method as previously described (30). At the relevant time point following dosing, blood samples were collected for plasma and the brain perfused with PBS for 5 min; CSF was also collected from separate groups of mice. Brain homogenates were prepared from dissected brains by homogenizing total brain (0.5 g) with four volumes (2 mL) of deionized water.
C57BL/6J mice were anaesthetized using ketamine hydrochloride (100 mg/kg) and xylazine (10 mg/kg), and were placed into a stereotactic frame with nose and ear bars specially adapted for mice. A digital stereotaxic instrument was used with a 5 μL Hamilton syringe to deliver either a sterile saline solution (0.9% sodium chloride) containing 0.2% ascorbic acid, 6-hydroxydopamine (6-OHDA; 12 μg) dissolved in saline containing 0.2% ascorbic acid, α-synuclein pre-formed fibrils (PFF-Syn; 8 μg in PBS), or PBS alone, into the right dorsal striatum of mice at the following stereotaxic coordinates relative to bregma (mm): -2.0 medial-lateral, + 0.5 anterior-posterior, -3.0 mm dorsal-ventral below the pial surface. After drilling a 1 mm burr-hole in the skull, a 2 μl volume of solution was infused at the target site at the rate of 0.5 μl per minute. The needle was held in place for at least 5 minutes after injection to minimize retrograde flow along the needle tract. Mice were given a subcutaneous injection of sterile Ringer ’s solution to help facilitate recovery and carprofen (5 mg/kg) for post-operative pain relief and were placed on a heat-pad until complete recovery from anaesthesia.
8-10 week-old C57BL/6J male mice were housed under a 12-hr light cycle in a SPF climate-controlled facility with food and water provided ad libitum for two weeks prior to study initiation.
mg/kg), or by drinking water (0.3mg/ml), with studies performed at UQ or by CROs. […]
Series [9] concerns the target CYP2C9 (Homo sapiens, UniProt P11712). Nature of the series: CYP2C9 inhibition.
Description: as §3
PPB – Plasma Protein Binding
as §4
Series [10] concerns the target T3, CYP1A2 (Homo sapiens, UniProt P05177).
T3 sequence (P05177 1-516): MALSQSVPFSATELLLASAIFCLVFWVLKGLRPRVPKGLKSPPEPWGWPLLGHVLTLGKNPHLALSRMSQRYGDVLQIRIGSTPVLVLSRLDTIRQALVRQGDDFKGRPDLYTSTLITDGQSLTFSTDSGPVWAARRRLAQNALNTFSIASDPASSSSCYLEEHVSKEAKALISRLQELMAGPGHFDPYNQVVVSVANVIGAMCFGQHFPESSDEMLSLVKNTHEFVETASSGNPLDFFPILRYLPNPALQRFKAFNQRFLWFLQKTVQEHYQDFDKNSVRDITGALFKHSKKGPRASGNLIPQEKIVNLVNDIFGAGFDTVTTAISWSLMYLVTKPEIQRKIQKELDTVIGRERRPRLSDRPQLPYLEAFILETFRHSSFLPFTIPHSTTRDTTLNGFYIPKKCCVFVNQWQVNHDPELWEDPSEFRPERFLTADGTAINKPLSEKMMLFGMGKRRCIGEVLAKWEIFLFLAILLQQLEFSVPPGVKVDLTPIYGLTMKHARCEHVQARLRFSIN
Nature of the series: CYP1A2 inhibition.

A short description of series [11]: Single-dose pharmacokinetics (plasma and brain) in C57BL/6J mice. Format: in vivo, mouse.
Series [12] can be described thus: Mouse plasma stability. Particulars: % remaining at 2 hours.
Description: as §3
PPB – Plasma Protein Binding
as §4
Series [13] is described as follows: Human plasma protein binding.
Description: as §3
PPB – Plasma Protein Binding
as §4

Chain of CYP2C9 (P11712 whole entry): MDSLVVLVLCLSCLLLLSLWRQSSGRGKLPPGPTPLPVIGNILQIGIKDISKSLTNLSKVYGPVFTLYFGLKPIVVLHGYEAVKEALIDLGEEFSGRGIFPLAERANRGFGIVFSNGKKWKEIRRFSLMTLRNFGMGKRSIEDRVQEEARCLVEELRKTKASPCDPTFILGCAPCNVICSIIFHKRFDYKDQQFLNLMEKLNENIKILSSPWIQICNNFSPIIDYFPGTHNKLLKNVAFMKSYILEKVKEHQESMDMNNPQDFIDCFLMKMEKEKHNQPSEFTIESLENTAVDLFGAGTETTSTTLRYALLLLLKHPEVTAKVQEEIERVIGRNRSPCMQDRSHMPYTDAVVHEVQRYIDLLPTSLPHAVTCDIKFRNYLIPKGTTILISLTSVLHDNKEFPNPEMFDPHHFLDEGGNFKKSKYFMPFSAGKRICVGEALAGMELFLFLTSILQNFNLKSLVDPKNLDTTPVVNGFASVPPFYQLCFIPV
Chain of hERG (human ether-a-go-go K+ ion channel) (Q12809 whole entry): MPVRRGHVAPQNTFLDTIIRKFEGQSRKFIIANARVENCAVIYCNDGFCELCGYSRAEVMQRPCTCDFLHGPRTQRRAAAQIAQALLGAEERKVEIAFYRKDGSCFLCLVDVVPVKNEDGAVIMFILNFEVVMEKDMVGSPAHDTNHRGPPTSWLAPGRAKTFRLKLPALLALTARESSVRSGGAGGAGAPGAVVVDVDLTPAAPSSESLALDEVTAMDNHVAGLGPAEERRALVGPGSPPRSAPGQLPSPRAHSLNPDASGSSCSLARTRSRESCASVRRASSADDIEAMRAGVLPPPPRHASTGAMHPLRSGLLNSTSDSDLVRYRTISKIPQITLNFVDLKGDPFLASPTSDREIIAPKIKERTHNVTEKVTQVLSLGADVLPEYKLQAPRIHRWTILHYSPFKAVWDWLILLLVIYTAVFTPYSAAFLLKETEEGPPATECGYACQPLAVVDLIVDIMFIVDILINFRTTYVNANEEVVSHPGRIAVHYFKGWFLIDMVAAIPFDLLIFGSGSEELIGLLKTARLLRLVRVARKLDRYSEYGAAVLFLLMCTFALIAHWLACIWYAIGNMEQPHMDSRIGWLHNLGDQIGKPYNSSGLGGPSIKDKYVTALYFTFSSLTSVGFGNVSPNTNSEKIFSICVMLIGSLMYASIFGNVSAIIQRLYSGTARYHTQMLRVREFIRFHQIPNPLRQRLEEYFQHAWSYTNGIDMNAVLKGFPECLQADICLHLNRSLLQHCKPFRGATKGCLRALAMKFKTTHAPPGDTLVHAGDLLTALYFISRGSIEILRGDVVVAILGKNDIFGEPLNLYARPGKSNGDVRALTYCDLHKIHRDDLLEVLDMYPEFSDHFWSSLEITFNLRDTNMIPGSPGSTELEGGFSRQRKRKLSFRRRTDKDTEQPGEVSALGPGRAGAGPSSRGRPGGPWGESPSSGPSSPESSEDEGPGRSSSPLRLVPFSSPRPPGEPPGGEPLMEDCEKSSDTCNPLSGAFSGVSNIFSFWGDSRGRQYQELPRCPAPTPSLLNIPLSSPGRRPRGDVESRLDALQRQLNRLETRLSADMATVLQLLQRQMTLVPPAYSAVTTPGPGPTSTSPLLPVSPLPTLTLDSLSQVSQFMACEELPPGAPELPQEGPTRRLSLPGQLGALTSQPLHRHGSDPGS

As to `CC(C)n1ccc(S(=O)(=O)NC(=O)Nc2c3c(cc4c2CCC4)CCC3)n1` [MCC7840], the “Inhibition or activation activity at any of 95 off-targets” value in series [1] was at most 35%. Moreover, the half-life in series [2] was over 2.42 h. The compound also had an inhibition at 30 µM in series [3] of 4.5 ± 3.1%. Besides, the “Safety, tolerability and pharmacokinetics in Phase I” value in series [4] is “excellent safety, tolerability and pharmacokinetic profile”. Moreover, in series [5], the “Inhibitory activity at NLRC4 inflammasome” value is reported as “not active”. In addition, the “Human % PS” value in [6] is given as 100%. Further, the “Inhibitory activity at AIM2 inflammasome” value in series [7] is recorded as “not active”. The ED50 was about 2.2 mg/kg in series [8] (read-out: ED50 for dopamine loss (striatal dopamine content)) and about 0.9 mg/kg in series [8] (read-out: ED50 for motor behaviour (amphetamine-induced ipsilateral rotations)). The Amphetamine-induced rotations entry in series [8] (all doses (1, 3, 10 mg/kg p.o. daily), Day 21) is on record as “significantly reduced”. Moreover, the “Striatal dopamine and its metabolites DOPAC and HVA” value in series [8] (all treatment groups (1, 3, 10 mg/kg p.o. daily), Day 28) is “significant preservation”. The figures for the IC50 in [9] and in [10] were 46 µM and 19 µM, respectively. In series [11] (fasted male C57BL/6J mice, i.v. 4 mg/kg or oral 20 mg/kg), the “Tolerability in single-dose pharmacokinetic studies” value was “well tolerated”. The bioavailability in series [11] (male, C57BL/6J, mouse, plasma, oral, mice, p.o. 20 mg/kg vs i.v. 4 mg/kg) is 68%. The Kp at 2 h in series [11] (male, C57BL/6J, mouse, mice, oral administration 20 mg/kg, total brain concentration, read-out: Brain-to-plasma ratio) is about 0.035. In series [11] (mice, p.o. 20 mg/kg, plasma), this compound returned an Oral half-life of 5.0 h. The “Mouse % PS” value in series [12] was found to be 89%. This compound gave a fraction unbound in series [13] of 0.003.
